Experimental data: PMC11555678, “Improved Broad Spectrum Antifungal Drug Synergies with Cryptomycin, a Cdc50-Inspired Antifungal Peptide” (ACS Infectious Diseases, 2024)
Read-outs that look alike come from different tables or passages of the source.

How the values were obtained:
[1] = tested on: C. glabrata 2001; type: cell-based, Candida glabrata; settings: RPMI1640, 37 °C, 48 h
Experimental: (§1) All microdilution assays with fungi were carried out in accordance with CLSI protocols from M27 for yeasts and M38 for filamentous fungi, respectively, unless otherwise specified.[64],[65] Briefly, 96-well plates were charged with RPMI1640 media, with operating volume in the first column, 200 μL, and half operating volume, 100 μL, in the remaining wells. Drug stock solution in DMSO was aliquoted into the first well in each row. Half of the volume in the dosed well was serially diluted 2-fold until column 11. Column 11 was used as the negative growth control, and column 12 was used as the positive growth control. ON yeast cultures in YPD were washed twice in DD-H2O, resuspended in PBS, and adjusted to 5000 cfu/mL in RPMI. The 96-well plate was inoculated with 100 μL aliquots of cell suspension per well. Plates were incubated at 37 °C for 2 days.
(§2) To assess drug synergy, the initial media charged to the plate contained the peptide at twice the final operating concentration; the remaining processing steps were identical to the MIC experiment. Upon addition of 100 μL of inoculant, the final operating concentration was achieved. Control MIC plates were prepared alongside drug synergy plates to account for the day-to-day variability in any individual MIC. FIC index is computed using eq 1. All MIC assays and drug synergy assays were completed with two technical replicates per 96-well plate and a minimum of two biological replicates per drug combination. If a difference in MIC between the two technical replicates on the plate were observed, only the higher concentration was reported as the MIC to reduce the possibility of type 1 error (false positive) [drawing 1] 1

[2] = tested on: A. fumigatus AF293; test: Drug synergy (MIC in peptide-supplemented media); type: cell-based, Aspergillus fumigatus; settings: RPMI1640, 37 °C, 48 h; for MIC of antifungal in combination with KKOO-NH2: MIC = well with <20% growth
Experimental: as §1, §2

[3] = tested on: C. neoformans apt3Δ; test: microbe, parasite or virus in culture; type: cell-based, Cryptococcus neoformans; settings: Cryptococcus neoformans, 48 h
Summary of the method: (§3)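 Two-fold dilution series prepared from DMSO stocks in RPMI1640 were inoculated with 5000 cfu/mL yeast per CLSI M27, then kept at 37 °C for 2 days.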

[4] = tested on: C. neoformans Crm1^OE; test: microbe, parasite or virus in culture; type: cell-based, Cryptococcus neoformans; settings: Cryptococcus neoformans, 48 h
Summary of the method: as §3

[5] = tested on: C. neoformans MRL862; test: microbe, parasite or virus in culture; type: cell-based, Cryptococcus neoformans; settings: RPMI1640, 37 °C, 48 h
Summary of the method: as §3

[6] = tested on: C. neoformans apt2Δ; test: microbe, parasite or virus in culture; type: cell-based, Cryptococcus neoformans; settings: Cryptococcus neoformans, 48 h
Summary of the method: as §3

[7] = tested on: C. neoformans crm1Δ; test: microbe, parasite or virus in culture; type: cell-based, Cryptococcus neoformans; settings: Cryptococcus neoformans, 48 h
Summary of the method: as §3

[8] = tested on: C. neoformans apt1Δ; test: microbe, parasite or virus in culture; type: cell-based, Cryptococcus neoformans; settings: Cryptococcus neoformans, 48 h
Summary of the method: as §3

[9] = tested on: C. neoformans apt4Δ; test: microbe, parasite or virus in culture; type: cell-based, Cryptococcus neoformans; settings: Cryptococcus neoformans, 48 h
Summary of the method: as §3

[10] = tested on: C. neoformans cdc50Δ; test: microbe, parasite or virus in culture; type: cell-based, Cryptococcus neoformans; settings: Cryptococcus neoformans, 48 h
Summary of the method: as §3

[11] = tested on: C. neoformans H99; test: microbe, parasite or virus in culture; type: cell-based, Cryptococcus neoformans; settings: Cryptococcus neoformans, H99; compound alone; RPMI1640, 37 °C, 48 h; read-out: MIC
Summary of the method: as §3

[12] = tested on: C. albicans SC5413; type: cell-based, Candida albicans; settings: RPMI1640, 37 °C, 48 h; for MIC of antifungal in combination with KKOO: azole MICs unclear (intermediate phenotype); for MIC of antifungal in combination with KKOO-NH2: azole MICs could not be determined (intermediate phenotype)
Experimental: as §1, §2

[13] = tested on: Cn MRL862; type: cell-based, Cryptococcus neoformans; settings: RPMI1640, 37 °C, 48 h
Experimental: as §1, §2

[14] = tested on: C. auris B11245; type: cell-based, Candida auris; settings: RPMI1640, 37 °C, 48 h; for MIC of antifungal in combination with KKOO-NH2: MIC = well with <20% growth
Experimental: as §1, §2

[15] = tested on: A. fumigatus AF293; test: microbe, parasite or virus in culture; type: cell-based, Aspergillus fumigatus
[16] = tested on: Cg FKS2 S663P; test: Drug synergy (MIC in peptide-supplemented media); type: cell-based, Candida glabrata; settings: RPMI1640, 37 °C, 48 h
Experimental: as §1, §2

[17] = tested on: Cg FKS1 S629P; test: Drug synergy (MIC in peptide-supplemented media); type: cell-based, Candida glabrata; settings: RPMI1640, 37 °C, 48 h
Experimental: as §1, §2

[18] = tested on: C. albicans SC5413; test: microbe, parasite or virus in culture; type: cell-based, Candida albicans; settings: Candida albicans, SC5413; compound alone; RPMI1640, 37 °C, 48 h; read-out: MIC
Summary of the method: as §3

[19] = +0 μg/mL KKOO (control), CAS: paradoxical growth, MIC = <20% growth
[20] = +0 μg/mL KKOO-NH2 (control), CAS: paradoxical growth
[21] = +1 μg/mL KKOO-NH2, CAS: paradoxical growth
[22] = +1 μg/mL KKOO, CAS: paradoxical growth, MIC = <20% growth
[23] = +2 μg/mL KKOO-NH2, CAS: paradoxical growth
[24] = +2 μg/mL KKOO, CAS: paradoxical growth, MIC = <20% growth
[25] = +4 μg/mL KKOO-NH2, CAS: paradoxical growth
[26] = +4 μg/mL KKOO, CAS: paradoxical growth, MIC = <20% growth

OC(Cn1cncn1)(Cn1cncn1)c1ccc(F)cc1F [FLC, fluconazole]
1 µg/mL: MIC of antifungal in combination with KKOO-NH2 ([17]; +4 μg/mL KKOO-NH2)
> 128 µg/mL: MIC of antifungal in combination with KKOO [2, 19] | MIC of antifungal in combination with KKOO [2, 22] | MIC of antifungal in combination with KKOO [2, 24] | MIC of antifungal in combination with KKOO [2, 26] | MIC of antifungal in combination with KKOO ([2]; +8 μg/mL KKOO) | MIC of antifungal in combination with KKOO [14, 19] | MIC of antifungal in combination with KKOO [14, 22] | MIC of antifungal in combination with KKOO [14, 24] | MIC of antifungal in combination with KKOO [14, 26] | MIC of antifungal in combination with KKOO ([14]; +8 μg/mL KKOO) | MIC ([15]; Aspergillus fumigatus, AF293, 48 h)
> 16 µg/mL: MIC of antifungal in combination with KKOO ([12]; +0 μg/mL KKOO (control)) | MIC of antifungal in combination with KKOO ([12]; +1 μg/mL KKOO) | MIC of antifungal in combination with KKOO ([12]; +2 μg/mL KKOO) | MIC of antifungal in combination with KKOO ([12]; +4 μg/mL KKOO) | MIC [18]
4 µg/mL: MIC of antifungal in combination with KKOO ([1]; +4 μg/mL KKOO) | MIC of antifungal in combination with KKOO ([1]; +8 μg/mL KKOO)
0.25 µg/mL: MIC [4]
0.125 µg/mL: MIC [10] | MIC of antifungal in combination with KKOO ([12]; +8 μg/mL KKOO)
0.5 µg/mL: MIC [8] | MIC of antifungal in combination with KKOO ([16]; +0 μg/mL KKOO (control)) | MIC of antifungal in combination with KKOO-NH2 ([16]; +0 μg/mL KKOO-NH2 (control)) | MIC of antifungal in combination with KKOO-NH2 ([16]; +1 μg/mL KKOO-NH2) | MIC of antifungal in combination with KKOO ([16]; +1 μg/mL KKOO) | MIC of antifungal in combination with KKOO-NH2 ([16]; +2 μg/mL KKOO-NH2) | MIC of antifungal in combination with KKOO ([16]; +2 μg/mL KKOO) | MIC of antifungal in combination with KKOO-NH2 ([16]; +4 μg/mL KKOO-NH2) | MIC of antifungal in combination with KKOO ([16]; +4 μg/mL KKOO)
>128 µg/mL: MIC of antifungal in combination with KKOO-NH2 [2, 20] | MIC of antifungal in combination with KKOO-NH2 [2, 21] | MIC of antifungal in combination with KKOO-NH2 [2, 23] | MIC of antifungal in combination with KKOO-NH2 [2, 25] | MIC of antifungal in combination with KKOO-NH2 ([2]; +8 μg/mL KKOO-NH2, CAS: paradoxical growth) | MIC of antifungal in combination with KKOO-NH2 [14, 20] | MIC of antifungal in combination with KKOO-NH2 [14, 21] | MIC of antifungal in combination with KKOO-NH2 [14, 23] | MIC of antifungal in combination with KKOO-NH2 [14, 25] | MIC ([15]; compound alone, RPMI1640, 37 °C, 48 h, * = paradoxical growth observed (CAS))
8 µg/mL: MIC of antifungal in combination with KKOO ([1]; +0 μg/mL KKOO (control)) | MIC of antifungal in combination with KKOO-NH2 ([1]; +0 μg/mL KKOO-NH2 (control)) | MIC of antifungal in combination with KKOO-NH2 ([1]; +1 μg/mL KKOO-NH2) | MIC of antifungal in combination with KKOO ([1]; +1 μg/mL KKOO) | MIC of antifungal in combination with KKOO-NH2 ([1]; +2 μg/mL KKOO-NH2) | MIC of antifungal in combination with KKOO ([1]; +2 μg/mL KKOO) | MIC of antifungal in combination with KKOO-NH2 ([1]; +4 μg/mL KKOO-NH2)
>16 µg/mL: MIC of antifungal in combination with KKOO-NH2 ([12]; +0 μg/mL KKOO-NH2 (control)) | MIC of antifungal in combination with KKOO-NH2 ([12]; +1 μg/mL KKOO-NH2) | MIC of antifungal in combination with KKOO-NH2 ([12]; +2 μg/mL KKOO-NH2) | MIC of antifungal in combination with KKOO-NH2 ([12]; +4 μg/mL KKOO-NH2)
64 µg/mL: MIC of antifungal in combination with KKOO ([13]; +1 μg/mL KKOO)
2 µg/mL: MIC [3] | MIC [6] | MIC [7] | MIC [9] | MIC [11] | MIC of antifungal in combination with KKOO ([17]; +0 μg/mL KKOO (control)) | MIC of antifungal in combination with KKOO-NH2 ([17]; +0 μg/mL KKOO-NH2 (control)) | MIC of antifungal in combination with KKOO-NH2 ([17]; +1 μg/mL KKOO-NH2) | MIC of antifungal in combination with KKOO ([17]; +1 μg/mL KKOO) | MIC of antifungal in combination with KKOO-NH2 ([17]; +2 μg/mL KKOO-NH2) | MIC of antifungal in combination with KKOO ([17]; +2 μg/mL KKOO) | MIC of antifungal in combination with KKOO ([17]; +4 μg/mL KKOO)
16 fold: MIC relative to wild-type strain H99 (higher) [5]
32 µg/mL: MIC ([5]; Cryptococcus neoformans, MRL862, compound alone, read-out: MIC) | MIC of antifungal in combination with KKOO ([13]; +0 μg/mL KKOO (control)) | MIC of antifungal in combination with KKOO-NH2 ([13]; +0 μg/mL KKOO-NH2 (control)) | MIC of antifungal in combination with KKOO-NH2 ([13]; +1 μg/mL KKOO-NH2) | MIC of antifungal in combination with KKOO-NH2 ([13]; +2 μg/mL KKOO-NH2) | MIC of antifungal in combination with KKOO ([13]; +2 μg/mL KKOO) | MIC of antifungal in combination with KKOO-NH2 ([13]; +4 μg/mL KKOO-NH2) | MIC of antifungal in combination with KKOO ([13]; +4 μg/mL KKOO)
